# From publication PMC8500670, “A selective WDR5 degrader inhibits acute myeloid leukemia in patient-derived mouse models” (Science translational medicine, 2021)
# Like-named read-outs stand apart in the source and are kept apart here.
# Legend:
# Assay in all cases: biochemical
# Set-up in all cases: protein methyltransferase selectivity panel, enzyme activity relative to DMSO controls, single concentration in duplicate
# NSD1 = NSD1 (Homo sapiens, UniProt Q96L73); settings: Substrate:=Nucleosomes
# Experimental: (§1) We next assessed selectivity of MS67 against 22 protein methyltransferases (table S2) and a broad panel of common drug targets including 45 kinases (table S3) and 44 G protein–coupled receptors (GPCR), ion channels, and transporters (table S4). […] We subsequently determined that MS67 had moderate binding affinity (Ki = 1.0 ± 0.8 μM) to Sigma 2 receptor (fig. S10).
# PRMT4 = target: T1, PRMT4 (Homo sapiens, UniProt Q86X55); settings: Substrate:=Histone H3
# T1 construct: gene CARM1
# T1 sequence (Q86X55 1-608): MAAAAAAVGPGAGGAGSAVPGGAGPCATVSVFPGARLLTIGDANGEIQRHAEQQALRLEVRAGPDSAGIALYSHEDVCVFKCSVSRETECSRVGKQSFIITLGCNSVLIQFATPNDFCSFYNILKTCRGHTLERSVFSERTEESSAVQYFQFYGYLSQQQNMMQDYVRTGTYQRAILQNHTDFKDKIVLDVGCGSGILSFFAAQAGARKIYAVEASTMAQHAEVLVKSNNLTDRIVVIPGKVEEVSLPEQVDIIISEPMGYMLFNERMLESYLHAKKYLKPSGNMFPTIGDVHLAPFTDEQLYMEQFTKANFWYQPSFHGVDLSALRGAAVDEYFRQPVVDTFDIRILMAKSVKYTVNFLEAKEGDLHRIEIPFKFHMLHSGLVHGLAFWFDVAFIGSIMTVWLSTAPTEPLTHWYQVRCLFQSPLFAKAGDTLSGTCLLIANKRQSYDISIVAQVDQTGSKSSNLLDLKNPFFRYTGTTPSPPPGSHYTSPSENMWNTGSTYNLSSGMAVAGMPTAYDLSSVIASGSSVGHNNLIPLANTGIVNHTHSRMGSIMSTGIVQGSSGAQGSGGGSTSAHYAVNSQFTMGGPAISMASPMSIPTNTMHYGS
# Experimental: as §1
# SETD2 = SETD2 (Homo sapiens, UniProt Q9BYW2); settings: Substrate:=Nucleosomes
# Chain of SETD2 (Q9BYW2 whole entry): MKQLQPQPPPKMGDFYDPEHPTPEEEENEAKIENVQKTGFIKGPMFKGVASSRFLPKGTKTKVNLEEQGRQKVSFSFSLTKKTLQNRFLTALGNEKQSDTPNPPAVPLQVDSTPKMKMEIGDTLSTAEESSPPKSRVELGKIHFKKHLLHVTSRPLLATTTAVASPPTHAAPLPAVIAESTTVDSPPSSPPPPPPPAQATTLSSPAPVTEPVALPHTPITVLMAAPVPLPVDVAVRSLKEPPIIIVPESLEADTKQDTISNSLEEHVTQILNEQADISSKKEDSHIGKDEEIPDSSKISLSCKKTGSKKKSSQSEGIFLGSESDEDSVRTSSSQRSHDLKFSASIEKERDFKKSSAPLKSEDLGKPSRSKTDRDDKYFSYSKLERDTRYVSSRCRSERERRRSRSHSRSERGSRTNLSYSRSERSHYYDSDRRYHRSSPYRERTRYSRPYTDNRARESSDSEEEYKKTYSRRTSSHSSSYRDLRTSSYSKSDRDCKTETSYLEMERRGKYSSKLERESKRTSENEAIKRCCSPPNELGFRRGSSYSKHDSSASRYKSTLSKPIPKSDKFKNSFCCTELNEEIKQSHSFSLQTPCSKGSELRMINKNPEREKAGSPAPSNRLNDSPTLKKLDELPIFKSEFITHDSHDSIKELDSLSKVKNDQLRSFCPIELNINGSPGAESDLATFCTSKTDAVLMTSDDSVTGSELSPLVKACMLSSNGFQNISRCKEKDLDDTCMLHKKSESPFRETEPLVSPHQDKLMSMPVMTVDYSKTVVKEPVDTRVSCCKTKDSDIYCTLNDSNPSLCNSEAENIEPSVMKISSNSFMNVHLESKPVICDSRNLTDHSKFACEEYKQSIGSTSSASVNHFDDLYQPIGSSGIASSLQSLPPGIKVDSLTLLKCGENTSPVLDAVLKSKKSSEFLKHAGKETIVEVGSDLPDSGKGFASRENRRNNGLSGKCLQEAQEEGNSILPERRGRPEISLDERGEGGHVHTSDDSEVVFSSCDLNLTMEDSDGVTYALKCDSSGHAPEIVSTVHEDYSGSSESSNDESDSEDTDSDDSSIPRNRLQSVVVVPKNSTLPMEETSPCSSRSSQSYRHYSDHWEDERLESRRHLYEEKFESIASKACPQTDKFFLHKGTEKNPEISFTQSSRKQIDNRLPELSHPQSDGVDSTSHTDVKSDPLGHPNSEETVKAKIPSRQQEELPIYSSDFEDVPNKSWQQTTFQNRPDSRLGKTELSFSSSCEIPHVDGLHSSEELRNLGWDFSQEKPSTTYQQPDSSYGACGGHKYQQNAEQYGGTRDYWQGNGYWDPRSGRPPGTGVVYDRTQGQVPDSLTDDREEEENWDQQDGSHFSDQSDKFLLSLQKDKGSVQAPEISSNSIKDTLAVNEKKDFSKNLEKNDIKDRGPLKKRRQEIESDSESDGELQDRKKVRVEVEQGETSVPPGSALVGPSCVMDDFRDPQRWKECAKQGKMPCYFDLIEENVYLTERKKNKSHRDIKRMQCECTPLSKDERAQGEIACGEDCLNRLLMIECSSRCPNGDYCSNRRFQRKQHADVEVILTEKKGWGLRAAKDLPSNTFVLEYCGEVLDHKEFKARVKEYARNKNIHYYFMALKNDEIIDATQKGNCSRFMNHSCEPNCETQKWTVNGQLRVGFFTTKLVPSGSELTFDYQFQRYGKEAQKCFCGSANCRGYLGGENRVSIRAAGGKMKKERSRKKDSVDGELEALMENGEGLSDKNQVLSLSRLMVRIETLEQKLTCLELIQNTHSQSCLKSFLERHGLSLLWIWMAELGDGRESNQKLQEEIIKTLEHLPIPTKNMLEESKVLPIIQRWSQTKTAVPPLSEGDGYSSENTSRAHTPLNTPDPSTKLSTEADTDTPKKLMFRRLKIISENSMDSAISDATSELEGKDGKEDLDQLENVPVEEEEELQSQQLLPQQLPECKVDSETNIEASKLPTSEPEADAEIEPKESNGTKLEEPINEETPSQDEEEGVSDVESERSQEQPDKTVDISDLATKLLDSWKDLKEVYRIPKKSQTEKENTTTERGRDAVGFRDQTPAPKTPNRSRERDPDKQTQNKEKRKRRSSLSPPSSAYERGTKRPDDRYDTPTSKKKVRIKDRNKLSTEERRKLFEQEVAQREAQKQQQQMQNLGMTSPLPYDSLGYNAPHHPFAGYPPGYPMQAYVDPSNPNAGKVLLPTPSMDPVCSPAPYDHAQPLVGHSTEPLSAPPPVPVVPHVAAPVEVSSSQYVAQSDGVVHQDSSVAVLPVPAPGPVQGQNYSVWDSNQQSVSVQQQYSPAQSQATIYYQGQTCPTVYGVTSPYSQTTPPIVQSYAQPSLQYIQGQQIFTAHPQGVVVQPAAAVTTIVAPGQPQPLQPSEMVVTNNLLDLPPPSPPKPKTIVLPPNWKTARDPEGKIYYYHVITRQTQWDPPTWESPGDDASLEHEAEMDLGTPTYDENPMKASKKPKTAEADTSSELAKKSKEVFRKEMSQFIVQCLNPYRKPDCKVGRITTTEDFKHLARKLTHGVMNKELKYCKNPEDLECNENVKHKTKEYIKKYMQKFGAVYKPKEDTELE
# Experimental: as §1
# NSD3 = target: T2, NSD3 (Homo sapiens, UniProt Q9BZ95); settings: Substrate:=Nucleosomes
# T2 sequence (Q9BZ95 1-1437): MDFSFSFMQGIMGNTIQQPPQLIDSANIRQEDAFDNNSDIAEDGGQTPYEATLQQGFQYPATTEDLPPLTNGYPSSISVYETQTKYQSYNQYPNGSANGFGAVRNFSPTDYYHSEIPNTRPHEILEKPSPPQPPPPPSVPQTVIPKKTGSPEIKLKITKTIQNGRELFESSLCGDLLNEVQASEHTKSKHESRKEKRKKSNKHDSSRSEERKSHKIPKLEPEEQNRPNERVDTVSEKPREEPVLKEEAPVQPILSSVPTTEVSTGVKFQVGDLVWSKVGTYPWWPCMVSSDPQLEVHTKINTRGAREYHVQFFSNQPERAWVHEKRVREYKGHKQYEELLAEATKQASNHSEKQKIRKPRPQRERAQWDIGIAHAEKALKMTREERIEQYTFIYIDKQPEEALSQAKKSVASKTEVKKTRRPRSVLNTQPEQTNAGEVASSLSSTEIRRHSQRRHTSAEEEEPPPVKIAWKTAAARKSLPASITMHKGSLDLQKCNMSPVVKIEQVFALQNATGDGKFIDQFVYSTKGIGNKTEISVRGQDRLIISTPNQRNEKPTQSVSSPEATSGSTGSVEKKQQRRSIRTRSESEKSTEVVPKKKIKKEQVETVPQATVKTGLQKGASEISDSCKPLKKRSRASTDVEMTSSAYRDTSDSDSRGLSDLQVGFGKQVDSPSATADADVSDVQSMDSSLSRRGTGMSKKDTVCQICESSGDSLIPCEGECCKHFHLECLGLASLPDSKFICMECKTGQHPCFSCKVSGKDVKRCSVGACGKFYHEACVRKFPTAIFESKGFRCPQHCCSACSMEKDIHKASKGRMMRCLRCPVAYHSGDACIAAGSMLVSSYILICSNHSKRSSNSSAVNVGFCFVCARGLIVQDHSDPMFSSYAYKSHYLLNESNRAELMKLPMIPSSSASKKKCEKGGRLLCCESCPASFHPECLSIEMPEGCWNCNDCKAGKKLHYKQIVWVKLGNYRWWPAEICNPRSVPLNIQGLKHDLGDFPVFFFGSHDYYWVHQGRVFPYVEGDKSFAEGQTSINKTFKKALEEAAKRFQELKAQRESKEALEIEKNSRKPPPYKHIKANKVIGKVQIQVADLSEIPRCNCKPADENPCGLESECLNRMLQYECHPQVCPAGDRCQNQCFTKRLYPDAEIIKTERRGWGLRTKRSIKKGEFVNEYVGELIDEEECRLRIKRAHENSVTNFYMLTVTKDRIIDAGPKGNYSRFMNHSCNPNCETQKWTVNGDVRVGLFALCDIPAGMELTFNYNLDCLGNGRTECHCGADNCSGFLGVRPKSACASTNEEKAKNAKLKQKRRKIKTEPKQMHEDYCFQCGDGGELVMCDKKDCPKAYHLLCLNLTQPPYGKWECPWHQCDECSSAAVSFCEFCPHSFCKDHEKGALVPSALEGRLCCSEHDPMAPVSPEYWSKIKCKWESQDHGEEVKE
# Experimental: as §1
# [1] = read-out: Enzyme % Activity (relative to DMSO controls) / MS67 / 10 / Data 1:
# [2] = read-out: Enzyme % Activity (relative to DMSO controls) / MS67 / 10 / Data 2:
compound,measurement,setting,value
Cc1ncsc1-c1ccc([C@H](C)NC(=O)[C@@H]2C[C@@H](O)CN2C(=O)[C@@H](NC(=O)CNC(=O)c2ccc(F)c(-c3ccc(N4C[C@@H](C)N(C)[C@@H](C)C4)c(NC(=O)c4c[nH]c(=O)cc4C(F)(F)F)c3)c2)C(C)(C)C)cc1 [MS67],remaining activity at 10 µM,NSD1; [1],111%
same,remaining activity at 10 µM,NSD1; [2],107%
same,remaining activity at 10 µM,PRMT4; [1],107%
same,remaining activity at 10 µM,PRMT4; [2],98.9%
same,remaining activity at 10 µM,SETD2; [1],112%
same,remaining activity at 10 µM,SETD2; [2],110%
same,remaining activity at 10 µM,NSD3; [1],136%
same,remaining activity at 10 µM,NSD3; [2],145%
